Measurements: article PMC12040169 (PLOS Biology, 2025)

Experiment: in vitro
Details: human, hela cells, % viability

| Structure (SMILES) | viability at 28.5 h, 10 µM | viability at 28.5 h, 10 µM (bulk resorufin, single well) |
| --- | --- | --- |
| COc1ccc(CCNc2c(Cc3ccccc3)c(C)c(C#N)c3nc4ccccc4n23)cc1OC [CBK263135] | 93% |  |
| Cc1ccc(C(=O)N/C(=C\c2ccccc2F)c2n[nH]c(=S)[nH]2)cc1 [CBK263136] | 87.4% |  |
| Sc1nnc(COc2ccc(Cl)cc2Cl)n1Cc1ccccc1 [CBK263138] | 88.2% |  |
| N#Cc1c2c(c(NCCN3CCCCC3)n3c1nc1ccccc13)CCC2 [CBK263140] | 114% |  |
| C/C(=N\NC(=O)CCN1CCN(C)CC1)c1ccc(O)cc1 [CBK263142] | 92.2% |  |
| Cc1c(Cc2ccccc2)c(-n2ccnc2C)n2c(nc3ccccc32)c1C#N [CBK263144] | 92.4% |  |
| O=C(CC(=O)Nc1c(Cl)cccc1C(F)(F)F)Nc1c(Cl)cccc1C(F)(F)F [CBK263148] | 103% |  |
| Cc1c(Cc2ccccc2)c(N2CCN(Cc3ccccc3)CC2)n2c(nc3ccccc32)c1C#N [CBK263150] | 94.9% |  |
| CCOCCCNc1c2c(c(C#N)c3nc4ccccc4n13)CCC2 [CBK263151] | 93.5% |  |
| Cc1ccc2[nH]c3c(c2c1)CCCC3NCC(O)Cc1ccccc1 (stereo not drawn) [CBK263154] | 87.2% |  |
| O=C(O)CN(c1ccccc1[N+](=O)[O-])S(=O)(=O)c1ccccc1 [CBK263158] | 95.6% |  |
| O=[N+]([O-])c1ccc(CN2CCN(Cc3cccnc3)CC2)cc1 [CBK263161] | 109% |  |
| Cc1cc([N+](=O)[O-])ccc1NC(=O)Cn1cnc2c1c(=O)n(C)c(=O)n2C [CBK263162] | 105% |  |
| CN1CCN(/N=C/c2c(C(F)(F)F)[nH]n(-c3nc4ccccc4s3)c2=O)CC1 [CBK263163] | 92.4% |  |
| CCn1c2ccccc2c2cc(CN3CCN(Cc4cc(OC)cc(OC)c4)CC3)ccc21 [CBK263164] | 95.9% |  |
| O=C(CCN1CCOCC1)Nc1ccc(Br)cc1C(=O)c1ccccc1 [CBK263165] | 93% |  |
| Cc1ccc(S(=O)(=O)N(CC(=O)NC2CCCC2)Cc2ccccc2)cc1 [CBK263166] | 89.9% |  |
| Cc1ccc(CN2CCN(Cc3ccc([N+](=O)[O-])cc3)CC2)cc1 [CBK263168] |  | 92.9% |
| Cc1nc2ccc(NC(=S)N3c4ccccc4CC3C)cc2nc1C (stereo not drawn) [CBK263169] | 62.5% |  |
| C=CCn1c(COc2ccc(Cl)cc2)nnc1SCC(=O)O [CBK263171] | 105% |  |
| COc1ccccc1N1CCN(/N=C\c2ccccc2OCC(=O)O)CC1 [CBK263173C] | 93.5% |  |

| Structure (SMILES) | viability at 28.5 h, 10 µM | viability at 28.5 h, 10 µM (bulk resorufin, single well) |
| --- | --- | --- |
| COc1cc(/C=C2\N=C(c3cccs3)OC2=O)ccc1OCc1ccc(Cl)cc1 [CBK263176] | 101% |  |
| CCn1c(SCC(=O)N/N=C/C(C)=C/c2ccccc2)nc2ccccc21 [CBK263178] | 107% |  |
| C/C(=N/NC(=O)CSc1nc2ccccc2n1C)c1cccc([N+](=O)[O-])c1 [CBK263179] | 99.3% |  |
| C/C(=N\NC(=O)CSc1nc2ccccc2n1Cc1ccccc1)c1ccco1 [CBK263180] | 118% |  |
| O=C(/C=C/c1ccco1)Nc1sc2c(c1C(=O)O)CCC2 [CBK263181] | 97.7% |  |
| CCOC(=O)c1c(NC(=O)CSc2nnc(C)s2)sc2c1CCC2 [CBK263183] | 91.2% |  |
| Cc1cc(=O)oc2ccc(OCC(=O)Nc3ccc(S(=O)(=O)O)cc3)cc12 [CBK263185N] | 100% |  |
| CCOc1cccc(NC(=O)/C(C#N)=C\c2cc(C)n(-c3cccc(C(=O)O)c3)c2C)c1 [CBK263186] | 115% |  |
| Nn1cnn2c(SCc3ccccc3)nnc12 [CBK263188] | 112% |  |
| CCOc1cccc(NC(=O)/C(C#N)=C\c2cc(OC)c(O)cc2Br)c1 [CBK263189] | 95.2% |  |
| Cn1ccnc1SCC(=O)Nc1ccc(S(N)(=O)=O)cc1 [CBK263190] | 84.6% |  |
| Nn1cnn2c(SCc3ccc(Cl)cc3)nnc12 [CBK263193] | 106% |  |
| Nn1cnn2c(SCC(=O)c3ccccc3)nnc12 [CBK263194] | 99.8% |  |
| O=C(O)c1cccc(-c2ccc(/C=N/Nc3ccc([N+](=O)[O-])cn3)o2)c1 [CBK263196] | 89.9% |  |
| COc1ccc(C(=O)CSc2nnc3n(N)cnn23)cc1 [CBK263201] | 94.6% |  |
| CC(=O)c1ccc(NS(=O)(=O)c2cc(C(=O)Nc3ccccc3C(=O)O)ccc2Br)cc1 [CBK263203] | 97.2% |  |
| O=C(/C=C/c1cn(-c2ccccc2)nc1-c1cccnc1)c1ccc(-c2ccccc2)cc1 [CBK263213] | 95.5% |  |
| CCC(Sc1ncccc1C(=O)O)C(=O)O (stereo not drawn) [CBK263216] | 98.4% |  |
| CCC1(CC)Cc2ccccc2-c2nc(NN)n(Cc3ccccc3)c(=O)c21 [CBK263217] | 102% |  |
| Cc1ccc(C(=O)Nc2ccc(C(=O)O)cc2)cc1S(=O)(=O)NCc1ccccc1 [CBK263219] | 101% |  |
| O=C(O)c1cccc(S(=O)(=O)N(CCO)CCO)c1 [CBK263221] | 93.2% |  |

| Structure (SMILES) | viability at 28.5 h, 10 µM | viability at 28.5 h, 10 µM (bulk resorufin, single well) |
| --- | --- | --- |
| O=C(Nc1ccccc1[N+](=O)[O-])c1cc(S(=O)(=O)Nc2ccccn2)ccc1Cl [CBK263229] | 87.8% |  |
| C=CCn1c2ccccc2c2nnc(SCC(=O)OCN3C(=O)c4ccccc4C3=O)nc21 [CBK263231] | 106% |  |
| O=C(Nc1ccc(Br)cc1)C1CC(O)CN1C(=O)OCc1ccccc1 (stereo not drawn) [CBK263233] | 101% |  |
| O=C(Nc1ccccc1C(=O)O)c1cc(S(=O)(=O)Nc2cccc([N+](=O)[O-])c2)ccc1Cl [CBK263234] | 90.3% |  |
| Cc1cc(CN2CCOCC2)oc1C(=O)O [CBK263239C] | 104% |  |
| O=C(Nc1ccccc1[N+](=O)[O-])c1cc(S(=O)(=O)NCc2ccccc2)c(Cl)cc1Cl [CBK263240] | 91.5% |  |
| O=C(O)c1cccc(NS(=O)(=O)c2ccc(Cl)c(C(=O)Nc3ccc(Br)cc3)c2)c1 [CBK263241] | 87% |  |
| CN(C)S(=O)(=O)c1ccc(C(=O)Nc2ccc(Br)cc2C(=O)c2ccccc2)cc1 [CBK263243] | 81.1% |  |
| O=C(O)C[S+]([O-])c1ccccc1C(=O)O (stereo not drawn) [CBK263244] | 96.3% |  |
| O=C(Nc1ccccc1C(=O)O)c1cc(S(=O)(=O)Nc2ccc(F)cc2)ccc1Cl [CBK263248] | 120% |  |
| O=S(=O)(NCc1ccccc1)c1cccc(S(=O)(=O)NCc2ccccc2)c1 [CBK263250] | 91.5% |  |
| O=S(=O)(NCc1ccccc1)c1ccc(Cl)c(S(=O)(=O)NCc2ccccc2)c1 [CBK263251] | 81.9% |  |
| O=C(Nc1ccccc1-c1nc2ccccc2[nH]1)c1ccc(S(=O)(=O)N2CCCC2)cc1 [CBK263252] | 88.5% |  |
| Cc1cc(-c2ccc([N+](=O)[O-])cc2)nc2ccc3ccccc3c12 [CBK263253C] | 90.3% |  |
| Nc1ccc(S(=O)(=O)Nc2nccc(/C=C/c3ccc(Cl)cc3)n2)cc1 [CBK263254] | 105% |  |
| Fc1cccc(-c2nnc(SCc3nc4ccccc4[nH]3)n2-c2ccccc2)c1 [CBK263256] | 95.3% |  |
| c1ccc(-n2nnnc2SCc2cccc(CSc3nnnn3-c3ccccc3)n2)cc1 [CBK263258] | 90.4% |  |
| COc1ccc(NC(=O)c2ccc(N3CCN(Cc4ccccc4)CC3)c([N+](=O)[O-])c2)cc1 [CBK263260] | 106% |  |
| NNC(=O)c1cc2ccccc2cc1NS(=O)(=O)c1ccccc1 [CBK263261] | 84.4% |  |
| O=C(CSCc1nc2ccccc2[nH]1)Nc1ccc2ccccc2c1 [CBK263262] | 90.5% |  |
| Cc1ccc(C(=O)O/N=C(\N)c2ccccn2)cc1 [CBK263265] | 90.9% |  |

| Structure (SMILES) | viability at 28.5 h, 10 µM | viability at 28.5 h, 10 µM (bulk resorufin, single well) |
| --- | --- | --- |
| Cc1ccc(S(=O)(=O)NCCOc2ccc(Cl)cc2)cc1[N+](=O)[O-] [CBK263268] | 106% |  |
| O=C(CN(c1cccc(Cl)c1)S(=O)(=O)c1ccccc1)Nc1cccc2cccnc12 [CBK263270] | 87.9% |  |
| Cc1oc(C(=O)Nc2ccc(C(=O)O)cc2)cc1COc1ccccc1 [CBK263273] | 94.2% |  |
| Cc1cccc(C)c1NC(=O)CSCC(=O)Nc1ccc2ccccc2c1 [CBK263274] | 94.2% |  |
| Cc1oc(C(=O)O)cc1CSCc1cc(C(=O)O)oc1C [CBK263275] | 101% |  |
| CC(C)C(=O)NC(c1ccco1)c1ccc2cccnc2c1O (stereo not drawn) [CBK263277] | 96.5% |  |
| O=C(CSc1nc2sc3c(c2c(=O)n1-c1ccccc1)CCCC3)NCCc1ccccc1 [CBK263280] | 93.7% |  |
| Cc1ccn2c(-c3csc(Nc4ccc(C(=O)O)cc4)n3)c(C)nc2c1 [CBK263283B] | 97.5% |  |
| COc1ccc(CCN2C(=O)CC(C(=O)O)S/C2=N\c2ccc(Cl)cc2)cc1OC (stereo not drawn) [CBK263286] | 93.9% |  |
| O=C(CSc1nnc(-c2ccccc2)[nH]1)c1cccc([N+](=O)[O-])c1 [CBK263287] | 91% |  |
| Cc1nc2sccn2c1-c1csc(Nc2cccc(C(=O)O)c2)n1 [CBK263291B] | 91.9% |  |
| CCOc1ccc(S(=O)(=O)N2CCSC2c2ccc(OC)c([N+](=O)[O-])c2)cc1 (stereo not drawn) [CBK263293] | 101% |  |
| Cc1nc2ncccn2c1-c1csc(Nc2ccc(S(N)(=O)=O)cc2)n1 [CBK263294B] | 84.8% |  |
| COc1ccccc1OCCOc1ccc(/C=N/n2cnnc2)cc1 [CBK263295] | 106% |  |
| Cc1nc(C)c(-c2csc(Nc3ncccn3)n2)s1 [CBK263297B] | 87.4% |  |
| O=C(CCCN1C(=O)c2cccc3cccc(c23)C1=O)N1CCN(C/C=C/c2ccccc2)CC1 [CBK263300C] | 103% |  |
| COc1ccc(S(=O)(=O)N2CCN(CCN3C(=O)c4cccc5cccc(c45)C3=O)CC2)cc1[N+](=O)[O-] [CBK263301] | 102% |  |
| Cc1ccn2c(-c3csc(Nc4ccc(S(N)(=O)=O)cc4)n3)c(C)nc2c1 [CBK263304B] | 63.7% |  |
| CCOc1ccc(N2C(=O)/C(=C/c3ccc(Br)cc3)C(=O)NC2=S)cc1 [CBK263305] |  | 92.7% |
| CCCOc1ccc(C(C)=O)cc1CC(C(N)=O)C(N)=O [CBK263309] | 90.6% |  |
| CC1(C)Cc2nc3nc(SCC(=O)c4ccc(Br)cc4)n(-c4ccccc4)c(=O)c3cc2CO1 [CBK263310] | 91% |  |
